The nature of test [1]: Ratio between Cytotoxic dose and effective dose was determined. Type of test: functional.
Test [2] concerns MT4. Briefly: […]. Type of test: functional. Particulars: Homo sapiens.
In test [3] the target is Human immunodeficiency virus type 1 protease (Human immunodeficiency virus 1, UniProt Q72874). Nature of the test: Compound was tested for inactivation of purified HIV-1 protease in vitro.
Test [4] relates to MT4. Briefly: Effective dose that inhibits cellular growth of MT-4 cells infected with HIV-1 RF strain. Type of test: functional, cell-based. To be noted: Homo sapiens.
Test [5] concerns C8166. Briefly: Effective dose that inhibits cellular growth of C8166 cells infected with SIV mac251 strain. To be noted: Homo sapiens.
The test system of test [6] is H9. Briefly: Effective dose that inhibits cellular growth of H9 cells infected with HIV-1 RF strain. It is filed as functional, cell-based. Particulars: Homo sapiens.
For test [7], the system named is JM1. Briefly: Effective dose that inhibits cellular growth of JM cells infected with HIV-1 GB8 strain. Type of test: functional, cell-based. To be noted: Homo sapiens.
The test system of test [8] is C8166. Briefly: Cytotoxic dose against HIV-1 was determined in C8166 cells. Type of test: functional. Particulars: Homo sapiens.
The test system of test [9] is JM1. Nature of the test: Cytotoxic dose against HIV-1 GB8 strain was determined in JM cells. It is filed as functional. Particulars: Homo sapiens.
Test [10] relates to C8166. Briefly: Effective dose that inhibits cellular growth of C8166 cells infected with HIV-2 rod strain. Type of test: functional, cell-based. To be noted: Homo sapiens.
For test [11], the system named is MT2. Briefly: Effective dose that inhibits cellular growth of MT2 cells infected with HIV-1 105/F strain. To be noted: Homo sapiens. Type of test: functional, cell-based.
The subject of test [12] is H9. Briefly: Effective dose that inhibits cellular growth of H9 cells infected with HIV-1 IIIB strain. Particulars: Homo sapiens. Type of test: functional, cell-based.
The species named for a further test is Homo sapiens. Nature of the test: Effective dose that inhibits cellular growth of PBMCs cells infected with HIV-1 CCI strain. Type of test: functional, cell-based. To be noted: PBMC.
Test [13] has as its system MT2. Briefly: Effective dose that inhibits cellular growth of MT2 cells infected with HIV-1 105/A strain. Type of test: functional, cell-based. To be noted: Homo sapiens.
Test [14] deals with C8166. Nature of the test: Effective dose that inhibits cellular growth of C8166 cells infected with HIV-1 RF strain. It is filed as functional, cell-based. Particulars: Homo sapiens.
For test [15], the system named is H9. Nature of the test: Effective dose that inhibits cellular growth of H9 cells infected with HIV-1 U455 strain. Type of test: functional, cell-based. Particulars: Homo sapiens.
Another test deals with CCRF-CEM. Nature of the test: Effective dose that inhibits cellular growth of CEM cells infected with HIV-1 IIIB strain. Type of test: functional, cell-based. Particulars: Homo sapiens.

Some results are limits rather than exact numbers.

As usually defined, the IC50 is the concentration needed to halve the response being measured. A lower IC50 goes with higher potency. Regarding `O=C(NC(C(=O)NC(Cc1ccc(OCc2ccccc2)cc1)C(=O)C(F)(F)C(=O)NCc1ccccc1)C1CCCC1)OCc1ccccc1` (centres undefined), the Ratio in test [1] is reported as more than 33. Also, the CC50 in the test with MT4 [2] is more than 100 µM. Also, the IC50 in test [3] came out at 0.006 µM.
For orientation: EC50 means the concentration giving half of the maximal effect. Read a high EC50 as a need for much substance. For `CC(C)[C@H](NC(=O)OC(C)(C)C)C(=O)NC(Cc1ccc(OCc2ccccc2)cc1)C(=O)C(F)(F)C(=O)NCc1ccccc1` (some centres undefined), in the test with MT4 [4], the EC50 was more than 10 µM. In the test on MT4 [2], this molecule returned a CC50 of 10 µM.
In the test on MT4 [4], `O=C(NC(C(=O)NC(Cc1ccc(OCc2ccccc2)cc1)C(=O)C(F)(F)C(=O)NCc1ccccc1)C1CCCCC1)OCc1ccccc1` (centres undefined) registered a concentration giving a half-maximal response (EC50) of more than 100 µM. The same molecule returned a CC50 with MT4 [2] of more than 100 µM. Also, half-maximal inhibition in test [3] (IC50) was put at 0.07 µM.
As to `CC(C)C[C@H](NC(=O)OCc1ccccc1)C(=O)NC(Cc1ccc(OCc2ccccc2)cc1)C(=O)C(F)(F)C(=O)NCc1ccccc1` (some centres undefined), in test [1], the Ratio came to 17. Moreover, in the test on MT4 [4], the EC50 turned out to be 0.19 µM. In the test with MT4 [2], the CC50 is 3.2 µM. The molecule also yielded an IC50 in [3] of 0.015 µM.
Regarding `CC(C)[C@H](NC(=O)OCc1ccccc1)C(=O)NC(Cc1ccccc1)C(=O)C(F)(F)C(=O)N1CCOCC1` (some centres undefined), the Ratio in test [1] is reported as more than 2. This molecule also returned a half-maximal effective concentration (EC50) in the test with MT4 [4] of 50 µM. In the test on MT4 [2], the CC50 was more than 100 µM. The Ki in test [3] came out at 0.07 µM.
Regarding `CC(C)[C@H](NC(=O)CCc1cccnc1)C(=O)NC(Cc1ccc(OCc2ccccc2)cc1)C(=O)C(F)(F)C(=O)NCc1ccccc1` (some centres undefined), the Ratio in test [1] is given as more than 100. The half-maximal effective concentration (EC50) with MT4 [4] worked out at 0.32 µM. The molecule further returned a CC50 in the test with MT4 [2] of more than 100 µM. Further, the 50% inhibitory concentration (IC50) in test [3] worked out at 0.008 µM.
As for `CC(C)[C@H](NC(=O)OCc1ccccc1)C(=O)NC(Cc1ccc(OCc2ccccc2)cc1)C(=O)C(F)(F)C(=O)NCc1ccccc1` (some centres undefined), the EC50 stood at 0.63 µM in the test with C8166 [5]; 0.056 µM in the test with H9 [6]; 0.14 µM in the test on JM1 [7]; 0.35 µM with C8166 [10]; 0.38 µM in the test with MT2 [11]; 0.29 µM in the test with H9 [12]. For the same molecule, the 50% effective concentration (EC50) in the test on MT4 [4] was 0.3 µM; in the test filed under Homo sapiens, 0.56 µM; in the test on MT2 [13], 0.23 µM; in the test on C8166 [14] it was 0.1 µM; in the test with H9 [15], 0.42 µM; in the test with CCRF-CEM it was 0.72 µM. The CC50 with C8166 [8], in the test on JM1 [9] and in the test on MT4 [2] was more than 100 µM each time. Besides, the Ratio in test [1] is more than 300. The Ki in test [3] stood at 0.005 µM.
For the molecule `CC(C)[C@H](NC(=O)OCc1ccccc1)C(=O)NC(Cc1ccc(OCc2ccccc2)cc1)C(=O)C(F)(F)C(=O)N1CCc2ccccc2C1` (some centres undefined), in [1], the Ratio is given as more than 280. This molecule also registered an EC50 with MT4 [4] of 0.36 µM. Further, the CC50 in the test with MT4 [2] was more than 100 µM. Also, the half-inhibitory concentration (IC50) in test [3] came out at 0.002 µM.
For the molecule `CC(C)[C@H](NC(=O)OCc1ccccc1)C(=O)NC(Cc1ccccc1)C(=O)C(F)(F)C(=O)NCc1ccccc1` (some centres undefined), the Ratio in [1] is approximately 5. For the same molecule, the response in the test with MT4 [4] was half-maximal at 5 µM (EC50). This molecule also showed a CC50 in the test on MT4 [2] of 23 µM. This molecule displayed a Ki in test [3] of 0.001 µM.
Consider `CCN(Cc1ccccc1)C(=O)C(F)(F)C(=O)C(Cc1ccc(OCc2ccccc2)cc1)NC(=O)[C@@H](NC(=O)OCc1ccccc1)C(C)C` (some centres undefined), for which the Ratio in test [1] was approximately 1. Besides, the EC50 in the test with MT4 [4] came to 8 µM. Besides, the CC50 in the test on MT4 [2] came to 10 µM. The molecule further yielded an IC50 in test [3] of 0.015 µM.
With `CC(C)[C@H](NC(=O)OCc1ccccc1)C(=O)NC(Cc1ccc(OCc2ccccc2)cc1)C(=O)C(F)(F)C(=O)N1CCOCC1` (some centres undefined), the Ratio in test [1] amounted to 20. Besides, the EC50 in the test on MT4 [4] came out at 3.2 µM. In the test with MT4 [2], this molecule had a CC50 of 64 µM. Besides, the Ki in test [3] turned out to be 0.005 µM.
Regarding `CC(C)[C@H](NC(=O)OCc1ccccc1)C(=O)NC(Cc1ccccc1)C(=O)C(F)(F)C(=O)N1CCc2ccccc2C1` (some centres undefined), the IC50 in [3] amounted to 0.05 µM.
As to `CC(C)[C@H](NC(=O)OCc1ccccc1)C(=O)NC(Cc1ccc(OCc2ccccc2)cc1)C(=O)C(F)(F)C(=O)N(C)Cc1ccccc1` (some centres undefined), the Ratio in test [1] is listed as more than 300. Also, the concentration giving a half-maximal response (EC50) in the test on MT4 [4] was determined as 0.28 µM. The same molecule showed a CC50 in the test on MT4 [2] of more than 100 µM. Also, the Ki in test [3] worked out at 0.0004 µM.
Turning to `CC(C)[C@H](NS(=O)(=O)Cc1ccccc1)C(=O)NC(Cc1ccc(OCc2ccccc2)cc1)C(=O)C(F)(F)C(=O)NCc1ccccc1` (some centres undefined), the half-maximal inhibitory concentration (IC50) in test [3] was 48 µM.

The record behind these values is ChEMBL document CHEMBL1127984, “Beneficial replacement of the P1 phenylalanine side chain in HIV-1 protease inhibitors of the difluorostatone type” (Bioorg Med Chem Lett, 1994).
